Results on one molecule are retold here after patent US20100234238A1, “METHOD FOR PROFILING KINASE INHIBITORS” (Janssen Pharmaceutica N V, priority 2006, published 2010).

The test system of test [1] is tyrosine kinase activity in cell line lysates. As to the kind of experiment: Peptide array profiling of 9 cell line lysates in the presence of MTKI or Tarceva. Particulars: 5 μM. Type of test: biochemical. On the procedure: To test whether other EGFR inhibitors, related to MTKI, such as Tarceva (erlotinib; OSI pharmaceuticals), are also amenable to this response prediction methodology, 9 cell lines were profiled in the presence of MTKI, or Tarceva (5 μM in both cases). […] The value of the previously derived MTKI prediction peptides is illustrated in Tables 6A to C. Based on these peptides also response to Tarceva can be predicted with identical accuracy as for MTKI (and with the same false predictions, in casu H2009 and MOLT4).

For test [2], the system named is 27 cell lines, representing diverse cancer cell types. As to the kind of experiment: Inhibition of proliferation of cell lines in vitro (response status). Type of test: cell-based. Details: key: R: A responder is predicted when minimally 4 peptides have a ratio <0.8; NR = Non-Responder to MTKI. Particulars: MTKI. On the procedure: It was tested whether the Pamchip peptide arrays are a useful tool to predict the response of a cell line to the multi-targeted kinase inhibitor, MTKI. MTKI inhibits the proliferation of a range of cell lines in vitro with widely varying IC50's. The lysates prepared from these 27 cell lines, representing diverse cancer cell types, were profiled on the peptide arrays in the absence or presence of 5 μM MTKI, in 6 replicates for each condition. In this panel, 13 cell lines were defined as responder cell lines (IC50<3 μM; cell lines are ordered according to increasing IC50 in Example 1, whereas 14 cell lines are classified as ‘non-responder’ cell lines (IC50>10 μM). Intermediary cell lines and cell lines with highly variable IC50 measurements were omitted from the analysis. The experiment included the highly responsive H3255 lung cancer cell line, which overexpresses mutant EGFR L858R. This mutant variant is highly responsive to MTKI, which is an ATP-competitive compound that binds to the active conformation of EGFR (similar to erlotinib and gefitinib). Accordingly, the most profound changes induced by MTKI in lysate kinase activity can be observed for this highly responsive cell line. […]

Regarding `COc1cc2ncnc3c2cc1OCCCCCN(C)Cc1ccc(Br)cc1N3` [MTKI, 4,6-ethanediylidenepyrimido[4,5-b][6,1,12]benzoxadiazacyclopentadecine, 17-bromo-8,9,10,11,12,13,14,19-octahydro-20-methoxy-13-methyl-], the “potency in lysate inhibition profile compared to Tarceva” value is reported as “slightly more potent” in test [1] (H3255 lysate) and “more potent” in test [1] (N87 lysate). The response status entry in test [2] (GTL16 cell line) and in test [2] (MOLT4 cell line) was “NR” in each case.
